Source: ChEMBL document CHEMBL4020739, “Investigation of the structural requirements of K-Ras(G12D) selective inhibitory peptide KRpep-2d using alanine scans and cysteine bridging” (Bioorg Med Chem Lett, 2017)
Peptide text beside a SMILES is read from it.

Columns and labels:
[1] = species on record: Homo sapiens; experiment: Selectivity ratio of IC50 for inhibition of biotinylated wild type K-Ras (unknown origin) to IC50 for inhibition of biotinylated K-Ras G12D mutant (unknown origin)
[2] = target: GTPase KRas (Homo sapiens, UniProt P01116, G12C); experiment: Inhibition of biotinylated K-Ras G12C mutant (unknown origin) assessed as reduction in SOS1 (564 to 1049 residues)-mediated BODIPY-GDP-GTP exchange after 1 hr by TR-FRET assay
[3] = target: T1, GTPase KRas (Homo sapiens, UniProt P01116, G12D); experiment: Inhibition of biotinylated K-Ras G12D mutant (unknown origin) assessed as reduction in SOS1 (564 to 1049 residues)-mediated BODIPY-GDP-GTP exchange after 1 hr in presence of DTT by TR-FRET assay
[4] = target: GTPase KRas (Homo sapiens, UniProt P01116); experiment: Inhibition of biotinylated wild-type K-Ras (unknown origin) assessed as inhibition of human SOS1 (564 to 1049 residues)-mediated BODIPY-GDP-GTP exchange after 1 hr by TR-FRET assay
[5] = species on record: Homo sapiens; experiment: Selectivity ratio of IC50 for inhibition of biotinylated K-Ras G12C mutant (unknown origin) to IC50 for inhibition of biotinylated K-Ras G12D mutant (unknown origin)
[6] = target: T1, GTPase KRas; experiment: Inhibition of biotinylated K-Ras G12D mutant (unknown origin) assessed as reduction in SOS1 (564 to 1049 residues)-mediated BODIPY-GDP-GTP exchange after 1 hr by TR-FRET assay

In the case of `CC[C@H](C)[C@@H]1NC(=O)[C@H](Cc2ccc(O)cc2)NC(=O)[C@H](CC(C)C)NC(=O)[C@@H]2CCCN2C(=O)[C@@H](NC(=O)[C@H](CCCNC(=N)N)NC(=O)[C@H](CCCNC(=N)N)NC(=O)[C@H](CCCNC(=N)N)NC(=O)[C@H](CCCNC(=N)N)NC(C)=O)CSSC[C@@H](C(=O)N[C@@H](CCCNC(=N)N)C(=O)N[C@@H](CCCNC(=N)N)C(=O)N[C@@H](CCCNC(=N)N)C(=O)N[C@@H](CCCNC(=N)N)C(N)=O)NC(=O)[C@H](C(C)C)NC(=O)[C@@H]2CCCN2C(=O)[C@H](CC(=O)O)NC(=O)[C@H](C)NC(=O)[C@H](CO)NC1=O` (HELM PEPTIDE1{[ac].R.R.R.R.C.P.L.Y.I.S.A.D.P.V.C.R.R.R.R.[am]}$PEPTIDE1,PEPTIDE1,6:R3-16:R3$$$V2.0), the Ratio IC50 [1] is reported as 65, the IC50 [2] is reported as 358 nM and the IC50 [3] is reported as 244 nM. For the same molecule, the IC50 [4] was 4190 nM, the Ratio IC50 [5] was 6 and the IC50 [6] was 64 nM.

`CC[C@H](C)[C@@H]1NC(=O)[C@H](Cc2ccc(O)cc2)NC(=O)[C@H](C)NC(=O)[C@@H]2CCCN2C(=O)[C@@H](NC(=O)[C@H](CCCNC(=N)N)NC(=O)[C@H](CCCNC(=N)N)NC(=O)[C@H](CCCNC(=N)N)NC(=O)[C@H](CCCNC(=N)N)NC(C)=O)CSSC[C@@H](C(=O)N[C@@H](CCCNC(=N)N)C(=O)N[C@@H](CCCNC(=N)N)C(=O)N[C@@H](CCCNC(=N)N)C(=O)N[C@@H](CCCNC(=N)N)C(N)=O)NC(=O)[C@H](C(C)C)NC(=O)[C@@H]2CCCN2C(=O)[C@H](CC(=O)O)NC(=O)[C@H](Cc2ccc(O)cc2)NC(=O)[C@H](CO)NC1=O` (HELM PEPTIDE1{[ac].R.R.R.R.C.P.A.Y.I.S.Y.D.P.V.C.R.R.R.R.[am]}$PEPTIDE1,PEPTIDE1,6:R3-16:R3$$$V2.0) was tested, and the Ratio IC50 [1] was > 56, the IC50 [2] was 1630 nM and the IC50 [3] was > 100000 nM. The IC50 [4] was > 100000 nM, the Ratio IC50 [5] was 1 and the IC50 [6] was 1790 nM.

In the case of `CC[C@H](C)[C@@H]1NC(=O)[C@H](Cc2ccc(O)cc2)NC(=O)[C@H](CC(C)C)NC(=O)[C@@H]2CCCN2C(=O)[C@@H](NC(=O)[C@H](CCCNC(=N)N)NC(=O)[C@H](CCCNC(=N)N)NC(=O)[C@H](CCCNC(=N)N)NC(=O)[C@H](CCCNC(=N)N)NC(C)=O)CSSC[C@@H](C(=O)N[C@@H](CCCNC(=N)N)C(=O)N[C@@H](CCCNC(=N)N)C(=O)N[C@@H](CCCNC(=N)N)C(=O)N[C@@H](CCCNC(=N)N)C(N)=O)NC(=O)[C@H](C(C)C)NC(=O)[C@@H]2CCCN2C(=O)[C@H](C)NC(=O)[C@H](Cc2ccc(O)cc2)NC(=O)[C@H](CO)NC1=O` (HELM PEPTIDE1{[ac].R.R.R.R.C.P.L.Y.I.S.Y.A.P.V.C.R.R.R.R.[am]}$PEPTIDE1,PEPTIDE1,6:R3-16:R3$$$V2.0), the Ratio IC50 [1] is reported as 4, the IC50 [2] is reported as 975 nM and the IC50 [3] is reported as > 100000 nM. For the same molecule, the IC50 [4] was 65000 nM, the Ratio IC50 [5] was 0.06 and the IC50 [6] was 15400 nM.

`CC(=O)N[C@@H](CCCNC(=N)N)C(=O)N[C@@H](CCCNC(=N)N)C(=O)N[C@@H](CCCNC(=N)N)C(=O)N[C@@H](CCCNC(=N)N)C(=O)N[C@H]1CSSC[C@@H](C(=O)N[C@@H](CCCNC(=N)N)C(=O)N[C@@H](CCCNC(=N)N)C(=O)N[C@@H](CCCNC(=N)N)C(=O)N[C@@H](CCCNC(=N)N)C(N)=O)NC(=O)[C@H](C(C)C)NC(=O)[C@@H]2CCCN2C(=O)[C@H](CC(=O)O)NC(=O)[C@H](Cc2ccc(O)cc2)NC(=O)[C@H](CO)NC(=O)[C@H](C)NC(=O)[C@H](Cc2ccc(O)cc2)NC(=O)[C@H](CC(C)C)NC(=O)[C@@H]2CCCN2C1=O` (HELM PEPTIDE1{[ac].R.R.R.R.C.P.L.Y.A.S.Y.D.P.V.C.R.R.R.R.[am]}$PEPTIDE1,PEPTIDE1,6:R3-16:R3$$$V2.0) gave a Ratio IC50 [1] of 2, an IC50 [2] of 5190 nM and an IC50 [3] of 73500 nM. The IC50 [4] was 39300 nM, the Ratio IC50 [5] was 0.3 and the IC50 [6] was 20600 nM.

Work on `CC[C@H](C)[C@@H]1NC(=O)[C@H](Cc2ccc(O)cc2)NC(=O)[C@H](CC(C)C)NC(=O)[C@@H]2CCCN2C(=O)[C@@H](NC(C)=O)CSSC[C@@H](C(N)=O)NC(=O)[C@H](C(C)C)NC(=O)[C@@H]2CCCN2C(=O)[C@H](CC(=O)O)NC(=O)[C@H](Cc2ccc(O)cc2)NC(=O)[C@H](CO)NC1=O` (HELM PEPTIDE1{[ac].C.P.L.Y.I.S.Y.D.P.V.C.[am]}$PEPTIDE1,PEPTIDE1,2:R3-12:R3$$$V2.0) yielded a Ratio IC50 [1] of 13, an IC50 [2] of 82 nM and an IC50 [3] of 9770 nM. It also gave an IC50 [4] of 142 nM, a Ratio IC50 [5] of 7 and an IC50 [6] of 11 nM.

For `CC[C@H](C)[C@@H]1NC(=O)[C@H](C)NC(=O)[C@H](CC(C)C)NC(=O)[C@@H]2CCCN2C(=O)[C@@H](NC(=O)[C@H](CCCNC(=N)N)NC(=O)[C@H](CCCNC(=N)N)NC(=O)[C@H](CCCNC(=N)N)NC(=O)[C@H](CCCNC(=N)N)NC(C)=O)CSSC[C@@H](C(=O)N[C@@H](CCCNC(=N)N)C(=O)N[C@@H](CCCNC(=N)N)C(=O)N[C@@H](CCCNC(=N)N)C(=O)N[C@@H](CCCNC(=N)N)C(N)=O)NC(=O)[C@H](C(C)C)NC(=O)[C@@H]2CCCN2C(=O)[C@H](CC(=O)O)NC(=O)[C@H](Cc2ccc(O)cc2)NC(=O)[C@H](CO)NC1=O` (HELM PEPTIDE1{[ac].R.R.R.R.C.P.L.A.I.S.Y.D.P.V.C.R.R.R.R.[am]}$PEPTIDE1,PEPTIDE1,6:R3-16:R3$$$V2.0), the Ratio IC50 [1] was 34, the IC50 [2] was 53 nM and the IC50 [3] was 192 nM. For the same molecule, the IC50 [4] was 1730 nM, the Ratio IC50 [5] was 1 and the IC50 [6] was 50 nM.

`CC[C@H](C)[C@@H]1NC(=O)[C@H](Cc2ccc(O)cc2)NC(=O)[C@H](CC(C)C)NC(=O)[C@@H]2CCCN2C(=O)[C@@H](NC(=O)[C@H](CCCNC(=N)N)NC(=O)[C@H](CCCNC(=N)N)NC(=O)[C@H](CCCNC(=N)N)NC(=O)[C@H](CCCNC(=N)N)NC(C)=O)CSSC[C@@H](C(=O)N[C@@H](CCCNC(=N)N)C(=O)N[C@@H](CCCNC(=N)N)C(=O)N[C@@H](CCCNC(=N)N)C(=O)N[C@@H](CCCNC(=N)N)C(N)=O)NC(=O)[C@H](C(C)C)NC(=O)[C@H](C)NC(=O)[C@H](CC(=O)O)NC(=O)[C@H](Cc2ccc(O)cc2)NC(=O)[C@H](CO)NC1=O` (HELM PEPTIDE1{[ac].R.R.R.R.C.P.L.Y.I.S.Y.D.A.V.C.R.R.R.R.[am]}$PEPTIDE1,PEPTIDE1,6:R3-16:R3$$$V2.0) gave a Ratio IC50 [1] of 80, an IC50 [2] of 12 nM and an IC50 [3] of 7.4 nM. It also gave an IC50 [4] of 216 nM, a Ratio IC50 [5] of 4 and an IC50 [6] of 2.7 nM.

In the case of `CC[C@H](C)[C@@H]1NC(=O)[C@H](Cc2ccc(O)cc2)NC(=O)[C@H](CC(C)C)NC(=O)[C@@H]2CCCN2C(=O)[C@@H](NC(=O)[C@H](CCCNC(=N)N)NC(=O)[C@H](CCCNC(=N)N)NC(=O)[C@H](CCCNC(=N)N)NC(=O)[C@H](CCCNC(=N)N)NC(C)=O)CSSC[C@@H](C(=O)N[C@@H](CCCNC(=N)N)C(=O)N[C@@H](CCCNC(=N)N)C(=O)N[C@@H](CCCNC(=N)N)C(=O)N[C@@H](CCCNC(=N)N)C(N)=O)NC(=O)[C@H](C(C)C)NC(=O)[C@@H]2CCCN2C(=O)[C@H](CC(=O)O)NC(=O)[C@H](Cc2ccc(O)cc2)NC(=O)[C@H](C)NC1=O` (HELM PEPTIDE1{[ac].R.R.R.R.C.P.L.Y.I.A.Y.D.P.V.C.R.R.R.R.[am]}$PEPTIDE1,PEPTIDE1,6:R3-16:R3$$$V2.0), the Ratio IC50 [1] is reported as 121, the IC50 [2] is reported as 36 nM and the IC50 [3] is reported as 22 nM. For the same molecule, the IC50 [4] was 764 nM, the Ratio IC50 [5] was 6 and the IC50 [6] was 6.3 nM.

Molecule `CC[C@H](C)[C@@H]1NC(=O)[C@H](Cc2ccc(O)cc2)NC(=O)[C@H](CC(C)C)NC(=O)[C@H](C)NC(=O)[C@@H](NC(=O)[C@H](CCCNC(=N)N)NC(=O)[C@H](CCCNC(=N)N)NC(=O)[C@H](CCCNC(=N)N)NC(=O)[C@H](CCCNC(=N)N)NC(C)=O)CSSC[C@@H](C(=O)N[C@@H](CCCNC(=N)N)C(=O)N[C@@H](CCCNC(=N)N)C(=O)N[C@@H](CCCNC(=N)N)C(=O)N[C@@H](CCCNC(=N)N)C(N)=O)NC(=O)[C@H](C(C)C)NC(=O)[C@@H]2CCCN2C(=O)[C@H](CC(=O)O)NC(=O)[C@H](Cc2ccc(O)cc2)NC(=O)[C@H](CO)NC1=O` (HELM PEPTIDE1{[ac].R.R.R.R.C.A.L.Y.I.S.Y.D.P.V.C.R.R.R.R.[am]}$PEPTIDE1,PEPTIDE1,6:R3-16:R3$$$V2.0) has a Ratio IC50 [1] of 41, an IC50 [2] of 113 nM and an IC50 [3] of 172 nM. The IC50 [4] was 763 nM, the Ratio IC50 [5] was 6 and the IC50 [6] was 19 nM.

Work on `CC[C@H](C)[C@@H]1NC(=O)[C@H](Cc2ccc(O)cc2)NC(=O)[C@H](CC(C)C)NC(=O)[C@@H]2CCCN2C(=O)[C@@H](NC(=O)[C@H](CCCNC(=N)N)NC(=O)[C@H](CCCNC(=N)N)NC(=O)[C@H](CCCNC(=N)N)NC(=O)[C@H](CCCNC(=N)N)NC(C)=O)CSSC[C@@H](C(=O)N[C@@H](CCCNC(=N)N)C(=O)N[C@@H](CCCNC(=N)N)C(=O)N[C@@H](CCCNC(=N)N)C(=O)N[C@@H](CCCNC(=N)N)C(N)=O)NC(=O)[C@H](C)NC(=O)[C@@H]2CCCN2C(=O)[C@H](CC(=O)O)NC(=O)[C@H](Cc2ccc(O)cc2)NC(=O)[C@H](CO)NC1=O` (HELM PEPTIDE1{[ac].R.R.R.R.C.P.L.Y.I.S.Y.D.P.A.C.R.R.R.R.[am]}$PEPTIDE1,PEPTIDE1,6:R3-16:R3$$$V2.0) yielded a Ratio IC50 [1] of 14, an IC50 [2] of 44 nM and an IC50 [3] of 35.8 nM. It also gave an IC50 [4] of 105 nM, a Ratio IC50 [5] of 6 and an IC50 [6] of 7.5 nM.
